In US6365571B1, “FGF inhibitor, angiogenesis inhibitor and antitumor agent containing complestatin or its derivative as effective ingredient” (NODA Institute for Scientific Research, priority 1998, dated 2002):

Key:
bFGF receptors = assay: Inhibition of specific binding of 125I-bFGF to receptors on Balb/3T3 clone A31 cells; set-up: species or system mouse; conditions: various concentrations, 2 ng/ml 125I-bFGF, 1.5 hours at 4° C., FIG. 5
Method: (3) Inhibitory effects on binding of bFGF to receptors was investigated for the above-mentioned sample solution according to the method of A. Yayon, et al. (Proc. Natl. Acad. Sci., USA, 90, 10643, 1993).
Namely, 1 ml of medium containing mouse fibroblast cell Balb/3T3 clone A31 cells at a concentration of 1×10^5 cells/ml (Dulbecco's modified Eagle's medium containing 10% calf serum, 25 mM HEPES (pH 7.5), 10 units/ml of penicillin and 10 μg/ml of streptomycin (10% CS/DMEM)) was added to a 24-well culture plate, and cultured for one day at 37° C. in a CO2 incubator. Furthermore, mouse fibroblast cells are known to express FGF receptors on their cell surfaces (J. Biol. Chem., 268, 9611, 1993). […]
Following completion of the reaction, after removing the binding medium and washing once with cold binding medium, the plate was washed twice with cold PBS (0.2 g potassium chloride, 0.2 g potassium primary phosphate, 8 g sodium chloride, 1.15 g sodium secondary phosphate and 1 liter of deionized water) at pH 7.5 containing 1.6 M sodium chloride. […] This procedure was repeated again, the solution was combined with the previous solution and then transferred to an RIA tube where radioactivity was measured with a gamma counter (available from Pharmacia Co.).
The amount of bFGF bound to receptors (specifically bound amount) was determined according to the following formula: […]

Balb/3T3 clone A31 cells = assay: Inhibition of cell migration stimulated by bFGF (chemotaxis chamber); format: cell-based, mouse; conditions: various concentrations, 1 ng/ml bFGF, 5 hours, FIG. 7
Text: The effect of complestatin on cell migration stimulated by bFGF was investigated using a 96-well chemotaxis chamber (available from NEURO PROBE CO.) installed with an 8 μm frame filter (available from NEURO PROBE CO.) precoated with gelatin.
The experimental principle is illustrated-in FIG. 6. When bFGF is placed in the bottom well, cells adhered to the frame filter in the top well migrate to the bottom well.
Addition of complestatin to the bottom well can be used to investigate the inhibitory effect of complestatin on cell movement.
(1) 100 μl of cell suspension (0.5% CS/DMEM containing Balb/3T3 clone A31 cells at a concentration of 5×10^5 cells/ml) were placed in the top wells. In addition, 35 μl of 0.5% CS/DMEM containing various concentrations of complestatin and 1 ng/ml of bFGF were placed in the bottom wells.
(2) After incubating the chamber for 5 hours at 37° C. in a CO2 incubator, the frame filter was removed from the chamber, the cells were stained with Diff-Quik staining solution (trade name, available from Kokusai Shiyaku Co.), and the number of cells that migrated to the bottom surface of the filter was counted. Furthermore, with the exception of not adding complestatin to the bottom wells, the same procedure was performed for the control.

[1] = tested on: fetal bovine heart endothelial (FBHE) cells; assay: Inhibition of FBHE cell growth stimulated by bFGF; format: cell-based; conditions: various concentrations, 1 ng/ml bFGF, 2 days, FIG. 8
Method: (§1) Growth of both fetal bovine heart endothelial (FBHE) cells and human umbilical vein endothelial cells (HUVEC) was promoted by addition of bFGF to the media. The inhibitory effect of complestatin on the cell growth stimulated by bFGF was investigated using these cells.
(1) 10% CS/DMEM containing FBHE at a concentration of 1×10^4 cells/ml was prepared for the cell suspension. One ml aliquots of this solution were then inoculated into each well of a 12-well plate and cultured for one day at 37° C. in a CO2 incubator. 1 ng/ml of bFGF and various concentrations of complestatin were added to each well followed by additional culturing for 2 days at 37° C. in a CO2 incubator. Next, the number of cells in each well was counted with a Coulter Counter (trade name, available from Coulter Electronics Co.).

[2] = tested on: human umbilical vein endothelial cells (HUVEC); assay: Inhibition of HUVEC cell growth stimulated by bFGF; format: cell-based; conditions: various concentrations, 10 ng/ml bFGF, 2 days, FIG. 8
Method: as §1
(2) On the other hand, medium containing HUVEC at a concentration of 1×10^4 cells/ml (MCDB131 medium containing 10% fetal bovine serum, 25 mM HEPES (pH 7.5), 10 units/ml of penicillin and 10 μg/ml of streptomycin) was prepared for the cell suspension. One ml aliquots of the cell suspension were inoculated into each well of a 12-well plate precoated with type I collagen, and incubated for one day at 37° C. in a CO2 incubator. 10 ng/ml of bFGF and various concentrations of complestatin were added to each well followed by additional incubation for 2 days at 37° C. in a CO2 incubator. Next, the number of cells in each well was counted with a Coulter Counter (trade name, available from Coulter Electronics Co.). Furthermore, with the exception of not adding complestatin, the same procedure was performed for the control.

[3] = tested on: bovine aortic endothelial cells (BAEC); assay: Tube formation of vascular endothelial cells in collagen gel; format: cell-based; conditions: Bos taurus, 48 h, 2 days, read-out: Tube formation inhibition rate
Method: The inhibitory effect of complestatin on angiogenesis was investigated using a modified method of Furubayashi, et al. (J. Jap. Pharm., 105, 357, 1995). In this method, vascular endothelial cells form a tube (blood vessel-like tubular structure) in collagen gel. Addition of complestatin to this system makes it possible to investigate the inhibitory effect of complestatin on angiogenesis.
(1) Collagen gel was prepared in the manner described below. To begin with, type I collagen solution (3 mg/ml, available from Wako Junyaku Co.), 10-fold concentrated HEPES-free DMEM, reconstitution buffer (2.2 g of sodium bicarbonate and 4.77 g of HEPES dissolved in 100 ml of 0.05 N aqueous sodium hydroxide solution) and deionized water were mixed on ice at a ratio of 5:1:1:3 followed by the addition of 0.75 ml aliquots to each well of a 12-well plate. This plate was then incubated for 20 minutes in an incubator at 37° C. to form a gel.
(2) A cell suspension was prepared by suspending 3×10^5 cells/ml of bovine aortic endothelial cells (BAEC) in 10% CS/DMEM, after which 1.5 ml aliquots were inoculated onto the collagen gel followed by culturing for one day at 37° C. in a CO2 incubator. After removing the medium and washing four times with DMEM, 0.75 ml aliquots of the above-mentioned type I collagen solution were layered onto the plate followed by gelation at 37° C. in an incubator. 1.5 ml of 0.5% CS/DMEM containing various concentrations of complestatin were added to the resulting gel followed by culturing for 2 days at 37° C. in a CO2 incubator.
(3) After culturing, photographs were taken of four fields randomly selected for each well and these photographs were then analyzed by using the Olympus image processing analyzer Type SP500F (trade name, available from Olympus Co.) to determine the lengths of all tubes. The length of tube was then divided by the field area to determine the tube length per unit area.
The tube formation inhibition rate of complestatin was calculated according to the following formula:
{1− (tube length per unit area at each concentration/tube length per unit area in the absence of addition of complestatin)}×100

[4] = tested on: chorioallantoic membrane of chick embryo; assay: Angiogenesis in the chick embryo chorioallantoic membrane; format: in vivo; conditions: 2 days, % of fertilized eggs with inhibition
Method: The inhibitory effect of complestatin on angiogenesis in the chorioallantoic membrane of chick embryo was investigated according to the method of T. Oikawa, et al. (J. Antibiotics, 44, 1033, 1991). To begin with, a portion of the uppermost part of the air chamber measuring about 1 cm square was removed from three-day-old fertilized chicken eggs, and cultured for 2 days in a humidified incubator. A silicon ring having an outer diameter of 5 mm and inner diameter of 3 mm was placed on the 5-day-old chorioallantoic membrane, and 10 μl of a 1% methylcellulose solution containing various concentrations of the complestatin obtained in Example 2 were added to the inside of the ring.
Moreover, after incubating for 2 days, a suitable amount of fat emulsion (Intralipos, trade name, available from Midori Juji Co.) was injected beneath the chorioallantoic membrane to facilitate microscopic observation followed by observation of angiogenesis in the chorioallantoic membrane. Fertilized eggs in which a region free of blood vessels in the chorioallantoic membrane (having a diameter of at least 3 mm) were judged as having observed inhibition of angiogenesis by complestatin. Angiogenesis inhibition rate (%) was calculated according to the following formula:
100× (number of fertilized eggs in which inhibition of angiogenesis was observed)/(number of fertilized eggs used in test)

[5] = tested on: mouse fibrosarcoma (Meth A) cells; assay: Antitumor activity, Meth A cells transplanted subcutaneously to mice; format: in vivo; conditions: days 1 to 4 and 7 to 9, BALB/c-nu/nu mice, tumor size after 10 days
Method: The antitumor activity of complestatin was confirmed in an experiment using mouse fibrosarcoma (Meth A) cells. To begin with, 1×10^6 Meth A cells cultured in the abdominal cavity of BALB/c-nu/nu mice were transplanted subcutaneously to BALB/c-nu/nu mice (control group: 5 mice, experimental group: 5 mice), and tumor size was measured after 10 days.
Complestatin was dissolved in PBS, and administered intraperitoneally at 250μl/day once a day during days 1 to 4 and days 7 to 9. The dosing concentrations of complestatin were set at 5 mg/kg and 10 mg/kg. The tumor growth inhibition rate caused by complestatin was calculated according to the following formula:
{1− (tumor size at each dosing concentration/tumor size at dosing concentration of 0 mg/kg)}×100

[6] = tested on: human leukemia (HL-60) cells; assay: Antitumor activity, HL-60 cells transplanted subcutaneously to SCID mice; format: in vivo, mouse; conditions: 5 mg/kg intraperitoneally, days 1 to 3, 5 to 9, 12 and 13, CB17 SCID mice, tumor size after 20 days
Method: The antitumor activity of complestatin was confirmed in an experiment using human leukemia (HL-60) cells. To begin with, 5×10^6 HL-60 cells were transplanted subcutaneously to CB17. SCID mice (control group: 4 mice, experimental group: 4 mice), and tumor size was measured after 20 days. Complestatin was dissolved in PBS, and administered intraperitoneally at 250μl/day once a day during days 1 to 3, days 5 to 9 and days 12 and 13. The dosing concentration of complestatin was set at 5 mg/kg. The tumor growth inhibition rate caused by complestatin was calculated according to the following formula:
{1− (tumor size at dosing concentration/tumor size at dosing concentration of 0 mg/kg)}×100

CN1C(=O)C(c2cc(Cl)c(O)c(Cl)c2)NC(=O)C2NC(=O)C(c3cc(Cl)c(O)c(Cl)c3)NC(=O)C(NC(=O)C(=O)c3cc(Cl)c(O)c(Cl)c3)Cc3c[nH]c4cc(ccc34)-c3cc2cc(c3O)Oc2ccc(cc2)CC1C(=O)NC(C(=O)O)c1ccc(O)cc1 (centres unmarked) [complestatin]
inhibition of specific binding of 125I-bFGF to receptors (bFGF receptors): concentration-dependently inhibit
inhibition of Balb/3T3 clone A31 cell migration stimulated by bFGF (Balb/3T3 clone A31 cells): concentration-dependently inhibit
inhibition of growth of FBHE promoted by bFGF [1]: concentration-dependently inhibit
inhibition of growth of HUVEC promoted by bFGF [2]: concentration-dependently inhibit
inhibition at 0.78 µg/mL ([3]; 0.78 μg/ml complestatin): 3%
inhibition at 1.6 µg/mL ([3]; 1.6 μg/ml complestatin): 17%
inhibition at 3.1 µg/mL ([3]; 3.1 μg/ml complestatin): 10%
inhibition at 6.3 µg/mL ([3]; 6.3 μg/ml complestatin): 21%
inhibition at 13 µg/mL ([3]; 13 μg/ml complestatin): 43%
inhibition at 25 µg/mL ([3]; 25 μg/ml complestatin): 91%
inhibition at 50 µg/mL ([3]; 50 μg/ml complestatin): 94%
inhibition at 100 µg/mL ([3]; 100 μg/ml complestatin): 99%
Angiogenesis inhibition rate ([4]; 6.25 μg/egg): 14%
Angiogenesis inhibition rate ([4]; 12.5 μg/egg): 33%
Angiogenesis inhibition rate ([4]; 25 μg/egg): 33%
Angiogenesis inhibition rate ([4]; 50 μg/egg): 52%
Angiogenesis inhibition rate ([4]; 100 μg/egg): 77%
Growth inhibition rate (tumor size) ([5]; 5 mg/kg intraperitoneally): 40%
Growth inhibition rate (tumor size) ([5]; 10 mg/kg intraperitoneally): 68%
Growth inhibition rate (tumor size) [6]: 76%
